Like-named read-outs stand apart in the source and are kept apart here.
How the values were obtained:
[1] = TIM-1 multi-compartmental in vitro model, bioaccessibility; format: in vitro ADME; conditions: for recovery at 10 mg/mL: TIM-1 multi-compartmental in vitro gastrointestinal model, read-out: Total recovery
Description: Bioaccessibility of a compound of Formula 5a in the form of a free base and a fumarate salt was assessed using a TIM-1 multi-compartmental in vitro model (TNO Quality of Life, The Netherlands).
Initial assessment of solutions and suspensions of the free base form at concentrations of 10 mg/mL and doses of 200 mg and 500 mg were performed using a standard protocol (lipid-fasted with starting gastric pH of 2 and a gastric half-time of 30 minutes).
A further study was performed with an increased initial gastric pH of 5 and a reduced gastric half-time of 20 min. In this study, 200 mg (free base equivalent) doses of 10 mg/mL suspensions of the free base and fumarate salt of the compound of Formula 5a were compared (see Table 4, FIG. 8).

[2] = Stability study of the fumarate salt in the solid state; format: physicochemical
Description: The stability of the fumarate salt of the compound of Formula 5a in the solid state was investigated for samples stored at 25° C./60% relative humidity (RH) in double lined polyethylene bags inside a fibreboard outer for long term stability testing. […] AH (ambient humidity) in double lined polyethylene bags inside fibreboard outers. Further stress testing was performed on exposed samples at 40° C./75% RH and at ambient temperature in a light chamber (exposed to a minimum of 1.2 million lux hours visible light and 200 watt-hours/m^2 UV light), as shown in Table 5.

SMILES: COc1ccc(-c2ccc3c(N4CCOC[C@@H]4C)nc(N4CCOC[C@@H]4C)nc3n2)cc1CO [Formula 5a free base, (5-{2,4-bis[(3S)-3-methylmorpholin-4-yl]pyrido[2,3-d]pyrimidin-7-yl}-2-methoxyphenyl)methanol]
- recovery at 10 mg/mL ([1]; 200 mg (free base equivalent), pH 5, 200 mg (free base equivalent) of 10 mg/mL suspension, initial gastric pH 5, gastric half-time 20 min): 93%
- recovery at 10 mg/mL ([1]; 200 mg, pH 2, 200 mg solution, 10 mg/mL, lipid-fasted, starting gastric pH 2, gastric half-time 30 min): 96.8%
- recovery at 10 mg/mL ([1]; 200 mg, pH 2, 200 mg suspension, 10 mg/mL, lipid-fasted, starting gastric pH 2, gastric half-time 30 min): 97.6%
- recovery at 10 mg/mL ([1]; 200 mg, pH 2, Table 4: 200 mg suspension, gastric pH 2): 97.6%
- recovery at 10 mg/mL ([1]; 500 mg, pH 2, 500 mg solution, 10 mg/mL, lipid-fasted, starting gastric pH 2, gastric half-time 30 min): 93.6%
- recovery at 10 mg/mL ([1]; 500 mg, pH 2, 500 mg suspension, 10 mg/mL, lipid-fasted, starting gastric pH 2, gastric half-time 30 min): 91.7%

SMILES: COc1ccc(-c2ccc3c(N4CCOC[C@@H]4C)nc(N4CCOC[C@@H]4C)nc3n2)cc1CO.O=C(O)/C=C/C(=O)O [Formula 5a fumarate salt, (5-{2,4-Bis[(3S)-3-methylmorpholin-4-yl]pyrido[2,3-d]pyrimidin-7-yl}-2-methoxyphenyl)methanol Fumarate salt]
- Assay (water and solvent-free, % w/w) ([2]; 1 month, 40° C./75% RH exposed): 100.3 % w/w
- Organic impurities: Largest single impurity (% w/w) ([2]; 1 month, 40° C./75% RH exposed): 0.16 % w/w
- Total organic impurities (% w/w) ([2]; 1 month, 40° C./75% RH exposed): 0.36 % w/w
- Water content (% w/w) ([2]; 1 month, 40° C./75% RH exposed): 5.0 % w/w
- Assay (water and solvent-free, % w/w) ([2]; 3 months, 25° C./60% RH): 99.7 % w/w
- Organic impurities: Largest single impurity (% w/w) ([2]; 3 months, 25° C./60% RH): 0.16 % w/w
- Total organic impurities (% w/w) ([2]; 3 months, 25° C./60% RH): 0.31 % w/w
- Water content (% w/w) ([2]; 3 months, 25° C./60% RH): 4.5 % w/w
- Assay (water and solvent-free, % w/w) ([2]; 3 months, 40° C./75% RH): 99.3 % w/w
- Organic impurities: Largest single impurity (% w/w) ([2]; 3 months, 40° C./75% RH): 0.16 % w/w
- Total organic impurities (% w/w) ([2]; 3 months, 40° C./75% RH): 0.26 % w/w
- Water content (% w/w) ([2]; 3 months, 40° C./75% RH): 5.6 % w/w
- Assay (water and solvent-free, % w/w) ([2]; 3 months, 50° C.): 96.8 % w/w
- Organic impurities: Largest single impurity (% w/w) ([2]; 3 months, 50° C.): 0.16 % w/w
- Total organic impurities (% w/w) ([2]; 3 months, 50° C.): 0.44 % w/w
- Water content (% w/w) ([2]; 3 months, 50° C.): 0.6 % w/w
- degradation on storage ([2]; 25° C./60% RH, 40° C./75% RH and 50° C. AH, 3 months): no significant degradation
- Assay (water and solvent-free, % w/w) ([2]; 10 days, light-exposed): 95.5 % w/w
- Organic impurities: Largest single impurity (% w/w) ([2]; 10 days, light-exposed): 0.97 % w/w
- Total organic impurities (% w/w) ([2]; 10 days, light-exposed): 2.28 % w/w
- Water content (% w/w) ([2]; 10 days, light-exposed): 5.0 % w/w
- Assay (water and solvent-free, % w/w) ([2]; Initial): 99.4 % w/w
- Organic impurities: Largest single impurity (% w/w) ([2]; Initial): 0.16 % w/w
- Total organic impurities (% w/w) ([2]; Initial): 0.31 % w/w
- Water content (% w/w) ([2]; Initial): 3.4 % w/w
- effect of exposure to light under stress conditions ([2]; light chamber, minimum 1.2 million lux hours visible and 200 watt-hours/m2 UV): darkened on exposed surfaces and a loss of assay and corresponding increase in organic impurities
- thermal degradation ([2]; stored at 50° C.): some evidence of thermal degradation
- Total recovery ([1]; 200 mg (free base equivalent) of 10 mg/mL suspension, initial gastric pH 5, gastric half-time 20 min): 95.12

Reference: patent US8198441B2, “Process for the preparation of novel pyridopyrazines as mTOR kinase inhibitors” (AstraZeneca AB, priority 2008, dated 2012)
